{
  "source": "paper PMC6597546",
  "about": "“Identification of a potent benzoxaborole drug candidate for treating cryptosporidiosis” (Nature Communications, 2019)",
  "key": {"Cytotoxicity THP-1 (3d)": {"assay": "Cytotoxicity THP-1 (3d)", "format": "cell-based", "details": "human, THP-1 cells, 25 µM highest concentration tested"}, "[1]": {"assay": "Cytotoxicity murine L929 (3d)", "format": "cell-based", "details": "mouse, L929 cells, 25 µM highest concentration tested"}, "[2]": {"test_system": "C. parvum intracellular DNA synthesis", "assay": "EdU incorporation DNA replication assay", "format": "cell-based, Cryptosporidium parvum", "details": "2 × EC90 = 0.42 µM", "description": "The invasion assay, DNA replication assay, asexual to sexual stage conversion, and time-kill curve assays were performed using fluorescence microscopy to enumerate parasites and host cell nuclei. Staining protocols are individually described for each assay. Unless noted otherwise, the details of image acquisition were as follows. An inverted Nikon Eclipse Ti2000 microscope with an automated stage and Perfect Focus was used with NIS-Elements Advanced Research software (Nikon, USA, version 4.30.01) to image the wells. The microscope was programmed to focus on the center of each well and then take a 3 × 3 composite image per well using a 20 × (0.45 NA) objective. Images were exported as .tiff files and parasites and host nuclei counted using a custom macro on ImageJ (National Institutes of Health, version 1.52a). Data were analyzed using Microsoft Excel and GraphPad Prism (version 6.01). Measurement of DNA replication was used as a surrogate marker of Cryptosporidium development within HCT-8 cells. […] Images were acquired by focusing on the parasite focal plane, which is on top of the host cell monolayer, using a ×40 objective (0.7 NA) and EdU and lectin numbers were quantified using ImageJ software."}, "hERG K+ ion channel": {"molecular_target": "T1, hERG K+ ion channel (Homo sapiens, UniProt Q12809)", "T1 construct": "Ricerca Biosciences (Taipei, Taiwan), contract laboratory", "T1 sequence (Q12809 whole entry)": "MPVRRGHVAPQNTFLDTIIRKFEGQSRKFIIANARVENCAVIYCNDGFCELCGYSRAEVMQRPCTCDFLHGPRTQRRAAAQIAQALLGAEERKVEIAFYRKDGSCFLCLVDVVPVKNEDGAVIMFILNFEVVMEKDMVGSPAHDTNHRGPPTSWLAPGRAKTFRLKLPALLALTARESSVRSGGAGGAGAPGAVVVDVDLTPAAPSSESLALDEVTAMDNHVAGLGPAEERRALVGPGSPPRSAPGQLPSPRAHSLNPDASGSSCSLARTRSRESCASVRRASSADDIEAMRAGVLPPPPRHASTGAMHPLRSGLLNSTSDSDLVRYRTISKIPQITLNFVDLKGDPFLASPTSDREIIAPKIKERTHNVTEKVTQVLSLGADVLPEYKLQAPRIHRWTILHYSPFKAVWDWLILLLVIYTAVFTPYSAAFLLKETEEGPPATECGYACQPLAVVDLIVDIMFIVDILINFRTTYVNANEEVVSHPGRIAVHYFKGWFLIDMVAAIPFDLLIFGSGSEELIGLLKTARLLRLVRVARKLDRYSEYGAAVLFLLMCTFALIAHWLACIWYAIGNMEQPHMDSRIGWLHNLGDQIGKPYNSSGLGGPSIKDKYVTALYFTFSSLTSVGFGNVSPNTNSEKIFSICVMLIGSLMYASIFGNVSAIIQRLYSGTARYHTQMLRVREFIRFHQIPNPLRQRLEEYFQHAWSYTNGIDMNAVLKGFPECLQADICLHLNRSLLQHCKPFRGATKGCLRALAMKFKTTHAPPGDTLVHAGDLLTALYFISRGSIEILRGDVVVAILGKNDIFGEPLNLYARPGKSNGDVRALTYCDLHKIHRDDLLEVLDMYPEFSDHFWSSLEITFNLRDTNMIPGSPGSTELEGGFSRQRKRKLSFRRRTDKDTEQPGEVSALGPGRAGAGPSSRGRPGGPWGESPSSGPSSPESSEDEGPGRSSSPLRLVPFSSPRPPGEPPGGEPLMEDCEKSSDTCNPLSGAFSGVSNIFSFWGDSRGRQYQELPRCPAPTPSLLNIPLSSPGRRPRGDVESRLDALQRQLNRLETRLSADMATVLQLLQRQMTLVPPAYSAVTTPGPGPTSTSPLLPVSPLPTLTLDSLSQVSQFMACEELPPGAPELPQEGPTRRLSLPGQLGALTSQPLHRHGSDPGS", "assay": "hERG radioligand binding competition", "details": "10 µM test compound, 1 h at 25 °C", "description": "In vitro safety profiling studies were conducted by Ricerca Biosciences (Taipei, Taiwan) and WuXi AppTec (Suzhou, China). Ricerca performed a Lead Profiling and Adverse Reaction Enzyme panel of 109 off-target enzymes and receptors. This included the hERG K+ ion channel, which is associated with cardiac tachyarrhythmias, and used a radioligand binding competition format with 10 µM test compound for 1 h at 25 °C. For the enzyme and receptor panel, competitive inhibition at 10 µM of test compound was the most common assay format. The AMES bacterial reverse mutation assay detects point mutations in Escherichia coli and Salmonella typhimurium as an indicator of mutagenic activity. Bacterial strains were obtained from Molecular Toxicology (Boone, NC)."}, "[3]": {"assay": "Liver microsome Clint (human)", "format": "in vitro ADME", "details": "liver microsomes"}, "in vivo": {"assay": "in vivo", "details": "male, Sprague-Dawley, rat, po", "procedure": "A repeated oral dose toxicity and separate toxicokinetics (TK) study were performed in male rats by WuXi AppTec Company (Suzhou, China). […] Animals were individually housed in solid bottom plastic cages with bedding in compliance with the US Animal Welfare Act. All rat studies were performed using ∼8-week-old Sprague-Dawley male rats (Rattus novegicus)/Crl: CD[SD] […] Cage side clinical observations of condition and behavior (i.e., gait, stool, activity level, atonia, coat soiling and grooming, skin turgor, posture, priapism, piloerection) were performed twice daily during the dosing phase, and weights and food consumption were measured daily. At termination, all study animals were evaluated for erythrocyte count, absolute reticulocyte count, alkaline phosphatase, and triglycerides by fasting the animals overnight and obtaining blood from the abdominal aorta at necropsy as a terminal procedure under deep anesthesia (pentobarbital). A complete necropsy and histopathologic studies (hematoxylin and eosin staining) of large intestine, small intestine, stomach, and any gross lesions were performed on all animals on day 7 of dosing. […] Serum was collected from vehicle-control animals at 1 h and 4 h after dosing on days 1 and 7. […] Following completion of blood collection, TK animals were euthanized by CO2 inhalation and exsanguination without necropsy."}, "MDR1 (P-gp)": {"test_system": "MDR1 (P-gp)", "assay": "in vitro", "details": "dog"}},
  "data": [
    {"smiles": "CC1(C)OB(O)c2cc(NC(=O)c3ccc(-n4cccn4)cc3Cl)ccc21", "note": "[AN7973]", "values": [
      {"measurement": "IC50 at 3 d", "setting": "Cytotoxicity THP-1 (3d)", "value": "> 25", "unit": "µM"},
      {"measurement": "IC50 at 3 d", "setting": "[1]", "value": "> 25", "unit": "µM"},
      {"measurement": "effect on intracellular DNA synthesis (EdU incorporation)", "setting": "[2]", "value": "arrested new DNA synthesis"},
      {"measurement": "hERG inhibition", "setting": "hERG K+ ion channel", "value": "negative"},
      {"measurement": "microsomal CLint", "setting": "[3]", "value": "< 1", "unit": "µL/min/mg"},
      {"measurement": "NOAEL at 7 days", "setting": "in vivo", "value": "> 80", "unit": "mg/kg/day"},
      {"measurement": "Papp", "setting": "MDR1 (P-gp); MDCK-MDR1, MDCK-MDR1 Papp", "value": 56.5, "unit": "×10⁻⁶ cm/s"},
      {"measurement": "Papp", "setting": "MDR1 (P-gp); MDCK-MDR1, MDCK-MDR1 Papp + Pgp inhibitor", "value": 60.6, "unit": "×10⁻⁶ cm/s"}
    ]}
  ]
}
